Some test systems named below: 786-0 renal; HS 578T breast; IGROV1 ovarian; OVCAR-5 ovarian; OVCAR-8 ovarian; SF-539 CNS; SK-OV-3 ovarian; UACC-257 melanoma.
Holding throughout (test): NCI anticancer screen, dose series, 48 h

SMILES strings stand for the structures.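 Each compound was tested at five concentrations against cells in 96-well plates for 48 hours. TGI: concentration producing complete growth inhibition.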 Bounds are passed on as bounds.

The source of these data is PubChem BioAssay (NCI).

On to `CC(C)(CO)CNc1nc(N)nc(Cl)c1N`, for which the TGI with 786-0 renal, in the assay on HS 578T breast, in the assay on IGROV1 ovarian, in the assay on OVCAR-5 ovarian, with OVCAR-8 ovarian and with SF-539 CNS was above 100 µM throughout. The TGI in the assay on SK-OV-3 ovarian and with UACC-257 melanoma was above 100 µM each time.

For the molecule `CC[C@]12C=CCN3CCC4(c5cc(N=Nc6ccccc6)c(OC)cc5N(C)[C@H]4[C@@](O)(C(=O)OC)[C@@H]1OC(C)=O)[C@@H]32` (stereo partly drawn), the TGI with 786-0 renal is 32.4 µM; in the assay on HS 578T breast, 39 µM; in the assay with IGROV1 ovarian it was 32.5 µM; in the assay on OVCAR-5 ovarian, 41.1 µM; in the assay on OVCAR-8 ovarian it was 42.2 µM; with SF-539 CNS, 48.3 µM. This molecule displayed a TGI with UACC-257 melanoma of 34.9 µM.

For `OCC1OC(n2cnc3cccnc32)CC1O` (stereo not drawn), the TGI with 786-0 renal, in the assay on HS 578T breast, in the assay with IGROV1 ovarian, in the assay with OVCAR-5 ovarian, with OVCAR-8 ovarian and in the assay on SF-539 CNS was above 100 µM in each case. The same molecule came in with a TGI in the assay with UACC-257 melanoma above 100 µM.

For the molecule `Cn1c(=O)c2c(-c3ccccc3)onc2n(C)c1=O`, the TGI in the assay with 786-0 renal is 86.5 µM; in the assay on HS 578T breast, 75.6 µM; in the assay on IGROV1 ovarian it was 55.3 µM; in the assay with OVCAR-5 ovarian, above 100 µM; in the assay on OVCAR-8 ovarian it was above 100 µM; in the assay with SF-539 CNS, above 100 µM. Further, the TGI in the assay with SK-OV-3 ovarian and in the assay with UACC-257 melanoma was above 100 µM throughout.

As for `Nc1ccc2c(c1)C(=O)c1ccccc1-2`, the TGI in the assay with 786-0 renal, with HS 578T breast, with IGROV1 ovarian, in the assay on OVCAR-5 ovarian, in the assay with OVCAR-8 ovarian and with SF-539 CNS was above 100 µM each time. The TGI in the assay with UACC-257 melanoma is above 100 µM.

As for `O=C(C1=C(C(=O)c2ccccc2)SC2(S1)C(C(=O)c1ccccc1)=C(C(=O)c1ccccc1)Sc1c2ssc1=O)c1ccccc1`, the TGI in the assay on 786-0 renal is above 100 µM; with HS 578T breast, above 100 µM; with IGROV1 ovarian it was above 100 µM; in the assay on OVCAR-5 ovarian it was 59.2 µM; in the assay with OVCAR-8 ovarian it was above 100 µM; with SF-539 CNS it was 57.6 µM. Further, the TGI in the assay with SK-OV-3 ovarian and in the assay with UACC-257 melanoma was above 100 µM each time.

On to `O=C(CC(O)(C(F)(F)F)C(F)(F)F)C(CCCl)C(O)(C(F)(F)F)C(F)(F)F` (stereo not drawn), for which the TGI with 786-0 renal is above 100 µM; in the assay with HS 578T breast, above 100 µM; with IGROV1 ovarian it was above 100 µM; with OVCAR-5 ovarian, above 100 µM; in the assay with OVCAR-8 ovarian, 83.9 µM; in the assay on SF-539 CNS, above 100 µM. In addition, the TGI was above 100 µM with SK-OV-3 ovarian and 91.2 µM in the assay with UACC-257 melanoma.

In the case of `N#CC1=C(N)C(C#N)(C#N)C(c2ccc(F)cc2)C=C1C1CC1` (stereo not drawn), the TGI is 21.9 µM in the assay on 786-0 renal; above 100 µM with HS 578T breast; 25.5 µM in the assay with IGROV1 ovarian; 34.5 µM in the assay on OVCAR-5 ovarian; 21.5 µM with OVCAR-8 ovarian; 2.42 µM with SF-539 CNS. Besides, the figures for the TGI with SK-OV-3 ovarian and in the assay with UACC-257 melanoma were 30 µM and 21.1 µM, respectively.

As to `N#Cc1c(Nc2ccc(F)cc2)[n+]([O-])c2ccc(Cl)cc2[n+]1[O-]`, the TGI is 27.5 µM in the assay on 786-0 renal; above 100 µM in the assay with HS 578T breast; 4.02 µM in the assay with IGROV1 ovarian; above 100 µM in the assay on OVCAR-8 ovarian; 7.31 µM with SF-539 CNS; 36.7 µM with SK-OV-3 ovarian. For the same molecule, the TGI in the assay on UACC-257 melanoma was found to be 11.9 µM.

For the molecule `O=C(c1ccccc1)c1c(C(F)(F)F)n([O-])c2ccccc2[n+]1=O`, the TGI was above 100 µM with 786-0 renal; above 100 µM in the assay on HS 578T breast; 0.489 µM in the assay with IGROV1 ovarian; 3.3 µM with OVCAR-8 ovarian; 5.77 µM in the assay on SF-539 CNS; 3.5 µM with UACC-257 melanoma.

As to `Cc1ccc(S(=O)(=O)n2cncc2CO)cc1`, the TGI in the assay with 786-0 renal, with HS 578T breast, in the assay with IGROV1 ovarian, in the assay on OVCAR-5 ovarian, in the assay on OVCAR-8 ovarian and in the assay with SF-539 CNS was above 100 µM in each case. Further, the TGI in the assay on SK-OV-3 ovarian and in the assay with UACC-257 melanoma was above 100 µM throughout.

Take `C=CCC(CNC(=O)OCc1ccccc1)O[Si](C)(C)C(C)(C)C` (stereo not drawn): the TGI was 98.7 µM with 786-0 renal; above 100 µM in the assay with HS 578T breast; 84.3 µM with IGROV1 ovarian; 71.6 µM with OVCAR-5 ovarian; above 100 µM in the assay with OVCAR-8 ovarian; 93.2 µM in the assay on SF-539 CNS. Further, the figures for the TGI with SK-OV-3 ovarian and in the assay with UACC-257 melanoma were above 100 µM and 83.7 µM, respectively.

As for `CC1(C)O[C@@H](CO)[C@H]([C@@]23OC[C@H]4OC(C)(C)OC4[C@@H]2OC(C)(C)O3)O1` (stereo partly drawn), the TGI in the assay with 786-0 renal, in the assay with HS 578T breast, with IGROV1 ovarian, in the assay on OVCAR-5 ovarian, in the assay with OVCAR-8 ovarian and with SK-OV-3 ovarian was above 100 µM throughout.

As for `O=C(c1ccc2ccccc2c1)C1S(=O)(=O)OCCOS1(=O)=O`, the TGI with 786-0 renal, in the assay with OVCAR-5 ovarian, with OVCAR-8 ovarian and with UACC-257 melanoma was above 100 µM each time.

Take `O=C(O)C(CCc1ccccn1)c1ccccc1` (stereo not drawn): the TGI with 786-0 renal, in the assay on HS 578T breast, with IGROV1 ovarian, in the assay on OVCAR-5 ovarian, with OVCAR-8 ovarian and in the assay on SF-539 CNS was above 100 µM each time. The TGI in the assay with SK-OV-3 ovarian and in the assay with UACC-257 melanoma was above 100 µM each time.

As for `Cc1cc2ccccc2c[n+]1CC(O)C[n+]1cc2ccccc2cc1C`, the TGI in the assay on 786-0 renal, with HS 578T breast, with IGROV1 ovarian, in the assay on OVCAR-5 ovarian, in the assay on OVCAR-8 ovarian and in the assay with SF-539 CNS was above 100 µM each time. The TGI in the assay with UACC-257 melanoma is above 100 µM.

As for `c1ccc(CCN2CCCCCC2)nc1`, the TGI in the assay on 786-0 renal, in the assay on HS 578T breast, with IGROV1 ovarian, in the assay on OVCAR-5 ovarian, in the assay with OVCAR-8 ovarian and in the assay on SK-OV-3 ovarian was above 100 µM each time.

Take `CN=C(Nn1cnnc1)OC`: the TGI in the assay on 786-0 renal, in the assay on HS 578T breast, with IGROV1 ovarian, in the assay with OVCAR-5 ovarian, in the assay with OVCAR-8 ovarian and in the assay on SK-OV-3 ovarian was above 100 µM throughout. The molecule also had a TGI with UACC-257 melanoma above 100 µM.
